The values below come from US20260215432A1, “ANTIMICROBIAL CONJUGATED OLIGOELECTROLYTES AND METHODS THEREOF” (National University of Singapore, priority 2023, published 2026).

In general, MIC refers to the lowest concentration found to suppress growth. In general, IC50 refers to the concentration that inhibits the measured activity by half. Read a low IC50 as greater potency.

Converted amounts (≈) assume the structure as drawn. “And” between values parts separate entries of the source, which are not always exact repeats. Equal values may be shown once. Read-outs that look alike come from different tables or passages of the source.

For series [1], the system named is M. abscesses (ATCC 19977). Kind of series: MIC against mycobacterium in Middlebrook 7H9 broth. The format is cell-based, M. abscessus. The following applies: for MIC: Mycobacteroides abscessus, ATCC19977. As for the experimental part: We also examined non-tuberculous mycobacteria (NTM). These are opportunistic pathogens that are rising in clinical significance due to their increasing prevalence and treatment difficulty. The membrane of Mycobacterium is inherently a greater antibiotic permeability barrier due to its high lipid content relative to other pathogens and long-tailed mycolic acids that contributed to its high lipophilic character. The antimicrobial activity of the TPP analogues were also evaluated against Mycobacterium in Middlebrook 7H9 broth.

Series [2] concerns Methicillin-resistant S. aureus (ATCC BAA1717). Put plainly: MIC, broth microdilution in CA-MHB. The format is cell-based. To be noted: for MIC MRSA: CA-MHB. The protocol: (§1) Antimicrobial activity was screened against a range of pathogens made up of clinically relevant ESKAPE pathogens by determination of the minimum inhibitory concentration (MIC) in cation-adjusted Mueller-Hinton broth (CA-MHB).
(§2) Minimum inhibitory concentrations of COEs were determined through a broth microdilution method in accordance with the Clinical and Laboratory Standards Institute (CLSI) guidelines M07-A10. A single bacterial colony was isolated from an overnight culture and grown to mid-log phase (OD600~0.8). Compounds were prepared as a stock solution in DMSO and diluted in a sterile flat-bottom 96-well plate in CA-MHB. Subsequent concentrations were prepared by two-fold dilution of the initial solution. An equivalent volume of bacteria was added to the compound to a final concentration of 5×10^5 cfu/mL. Plates were incubated at 37° C. for 16-18 hours, and read at OD600 using a microplate reader (TECAN Spark®). […] MIC values were determined for each compound in triplicate.
(In general: In broth dilution the organism is exposed to a series of concentrations in liquid medium.)

The subject of series [3] is E. coli. K12 (ATCC 10798). Kind of series: MIC, broth microdilution in CA-MHB. The format is cell-based. To be noted: for MIC EC: CA-MHB. The protocol: as §1, §2
The subject of series [4] is A. baumanii (ATCC 17978). Kind of series: MIC, broth microdilution in CA-MHB. The class given is cell-based. To be noted: for MIC AB: CA-MHB. As for the experimental part:
as §1, §2

For series [5], the system named is K. pneumoniae (carbapenem-resistant Enterobacterales) (ATCC BAA1705). Kind of series: MIC, broth microdilution in CA-MHB. The format is cell-based. The following applies: CA-MHB. As for the experimental part:
as §1, §2

For series [6], the system named is E. facium (ATCC 19434). Put plainly: MIC, broth microdilution in CA-MHB. The format is cell-based. To be noted: for MIC FAC: CA-MHB. The protocol:
as §1, §2

Series [7] deals with P. aeruginosa (ATCC47085). Put plainly: MIC, broth microdilution in CA-MHB. The format is cell-based. The following applies: CA-MHB. As for the experimental part: as §1, §2
Series [8] deals with S. aureus (ATCC 29213). Put plainly: MIC, broth microdilution in CA-MHB. The format is cell-based. The protocol: as §1, §2
The test system of series [9] is E. faecalis OG1RF (ATCC 47077). Kind of series: MIC, broth microdilution in CA-MHB. The class given is cell-based. To be noted: CA-MHB. As for the experimental part: as §1, §2
The conditions of series [10]: phosphate-buffered saline; below 10 μg mL^−1 estimated by turbidimetric screening.
Description: The solubility of all the TPP derivatives was determined in phosphate-buffered saline (PBS) (Table S3).
For series [11], the system named is A549 (lung epithelial cells). Kind of series: Cytotoxicity against mammalian cell line. The class given is cell-based. As for the experimental part: The cytotoxicity of the TPP COEs was also tested against a mammalian cell line (A549).

Compound `CC(=O)NC[C@H]1CN(c2ccc(N3CCOCC3)c(F)c2)C(=O)O1` [Linezolid, reference compound] gave an MIC in series [1] of 8 µg/mL (≈ 23.7 µM).
In the case of `CN[C@H](CC(C)C)C(=O)N[C@H]1C(=O)N[C@@H](CC(N)=O)C(=O)N[C@H]2C(=O)N[C@H]3C(=O)N[C@H](C(=O)N[C@H](C(=O)O)c4cc(O)cc(O)c4-c4cc3ccc4O)[C@H](O)c3ccc(c(Cl)c3)Oc3cc2cc(c3O[C@@H]2O[C@H](CO)[C@@H](O)[C@H](O)[C@H]2O[C@H]2C[C@](C)(N)[C@H](O)[C@H](C)O2)Oc2ccc(cc2Cl)[C@H]1O` [Vancomycin, reference compound], the MIC in series [2] (Staphylococcus aureus, ATCC BAA-1717 / MRSA, read-out: MIC MRSA) is 1 µg/mL (≈ 0.69 µM); in series [3] (Escherichia coli, ATCC10798, read-out: MIC EC), above 128 µg/mL; in [4] (Acinetobacter baumannii, ATCC17978, read-out: MIC AB), above 128 µg/mL; in series [6] (read-out: MIC FAC), 1 µg/mL (≈ 0.69 µM). Besides, in series [5], the “MIC KP” value is above 128 µg/mL.
For `COc1cc(/C=C/c2ccc(OCCCCCCCC[P+](c3ccccc3)(c3ccccc3)c3ccccc3)c(OC)c2)ccc1OCCCCCCCC[P+](c1ccccc1)(c1ccccc1)c1ccccc1.[I-].[I-]` [DM8P], in series [2], the “MIC MRSA” value was found to be 4 µg/mL. In series [2] (towards MRSA, Table 3), the MIC was 4 µg/mL. Further, the “MIC EC” value in series [3] was above 4 µg/mL. Also, the “MIC AB” value in series [4] was above 4 µg/mL. The “MIC PA” value in series [7] is above 4 µg/mL. Also, the “MIC SA” value in [8] is above 4 µg/mL. In addition, in [5], the “MIC KP” value was above 4 µg/mL. Further, the “MIC FAE” value in series [9] is 1 µg/mL. The “MIC FAC” value in series [6] is 1 µg/mL. Besides, the “solubility in PBS” value in series [10] was 4 µg/mL. The compound also yielded an IC50 in series [11] of 10 µg/mL. In series [1], the “MIC M. abscesses” value amounted to 64 µg/mL.
For the compound `C(=C\c1ccc(OCCCC[P+](c2ccccc2)(c2ccccc2)c2ccccc2)cc1)/c1ccc(OCCCC[P+](c2ccccc2)(c2ccccc2)c2ccccc2)cc1.[I-].[I-]` [Compound D4P], the “MIC MRSA” value in series [2] was 2 µg/mL. This compound also displayed an MIC in [2] (towards MRSA, Table 3) of 2 µg/mL. Besides, the “MIC EC” value in [3] was 4 µg/mL and 8 µg/mL. Also, the “MIC AB” value in series [4] was found to be 32 µg/mL. Besides, in [7], the “MIC PA” value stood at 16 µg/mL. Also, the “MIC SA” value in series [8] was 4 µg/mL. Besides, the “MIC KP” value in series [5] stood at 32 µg/mL. For the same compound, the “MIC FAE” value in series [9] came out at 1 µg/mL. Further, the “MIC FAC” value in series [6] was 1 µg/mL. In [10], the “solubility in PBS” value is 76 µg/mL. Moreover, the IC50 in [11] amounted to 8 µg/mL. Further, the “MIC M. abscesses” value in series [1] is 32 µg/mL.
Consider Polymyxin B [reference compound], for which the “MIC EC” value in [3] turned out to be 1 µg/mL. For the same compound, the “MIC AB” value in series [4] was 4 µg/mL. In series [7], the “MIC PA” value stood at 2 µg/mL. In addition, the “MIC KP” value in series [5] stood at 2 µg/mL.
With `C(=C\c1ccc(OCCCCCC[P+](c2ccccc2)(c2ccccc2)c2ccccc2)cc1)/c1ccc(OCCCCCC[P+](c2ccccc2)(c2ccccc2)c2ccccc2)cc1.[I-].[I-]` [Compound D6P], the “MIC MRSA” value in series [2] came out at 2 µg/mL. 2 µg/mL was the least that counted as inhibitory in series [2] (towards MRSA, Table 3) (MIC). Besides, the “MIC EC” value in series [3] was 2 µg/mL. Besides, in series [4], the “MIC AB” value was above 16 µg/mL. In addition, the “MIC PA” value in series [7] was 8 µg/mL. The “MIC SA” value in series [8] was found to be 2 µg/mL. The “MIC KP” value in series [5] was above 16 µg/mL. Besides, in series [9], the “MIC FAE” value came out at 1 µg/mL. For the same compound, the “MIC FAC” value in [6] stood at 1 µg/mL. Also, the “solubility in PBS” value in [10] is 18 µg/mL. Further, the IC50 in series [11] is 13 µg/mL. The “MIC M. abscesses” value in series [1] was found to be 16 µg/mL.
On to `C[N+](C)(C)CCCCCCCCOc1ccc(/C=C/c2ccc(OCCCCCCCC[N+](C)(C)C)cc2)cc1.[I-].[I-]` [Compound D8, reference compound], for which, in series [2], the “MIC MRSA” value is 8 µg/mL. Besides, 8 µg/mL was the least that counted as inhibitory in series [2] (towards MRSA, Table 3) (MIC). Besides, the “MIC EC” value in series [3] was 4 µg/mL. For the same compound, the “MIC AB” value in [4] turned out to be 32 µg/mL. In series [7], the “MIC PA” value is above 64 µg/mL. Also, in [8], the “MIC SA” value was 8 µg/mL. Also, the “MIC KP” value in series [5] amounted to 64 µg/mL. Besides, the “MIC FAE” value in [9] is 4 µg/mL. Also, in series [6], the “MIC FAC” value stood at 1 µg/mL. Besides, the IC50 in [11] is 11 µg/mL.
For the compound `C(=C\c1ccc(OCCCCCCCC[P+](c2ccccc2)(c2ccccc2)c2ccccc2)cc1)/c1ccc(OCCCCCCCC[P+](c2ccccc2)(c2ccccc2)c2ccccc2)cc1.[I-].[I-]` [Compound D8P], in series [10], the “solubility in PBS” value is 4 µg/mL.
Consider `COc1cc(/C=C/c2ccc(OCCCCCC[P+](CCCO)(CCCO)CCCO)c(OC)c2)ccc1OCCCCCC[P+](CCCO)(CCCO)CCCO.[I-].[I-]` [DM6THPP], for which the “MIC MRSA” value in [2] was above 64 µg/mL. The MIC in series [2] (towards MRSA, Table 3) is above 64 µg/mL. For the same compound, the “MIC EC” value in series [3] is above 64 µg/mL. For the same compound, the “MIC AB” value in [4] is above 64 µg/mL. Also, the “MIC PA” value in series [7] is above 64 µg/mL. In addition, the “MIC SA” value in series [8] is above 64 µg/mL. Further, the “MIC KP” value in [5] is above 64 µg/mL. In [9], the “MIC FAE” value was above 64 µg/mL. The “MIC FAC” value in series [6] was above 64 µg/mL. This compound had an IC50 in series [11] above 1024 µg/mL.
As for `C[N+](C)(C)CCCCCCOc1ccc(/C=C/c2ccc(OCCCCCC[N+](C)(C)C)cc2)cc1.[I-].[I-]` [Compound D6, reference compound], in series [2], the “MIC MRSA” value was 32 µg/mL. Further, the lowest concentration to inhibit growth in series [2] (towards MRSA, Table 3) (MIC) was 32 µg/mL. Besides, the “MIC EC” value in series [3] is 16 µg/mL. Further, the “MIC AB” value in series [4] was above 64 µg/mL. For the same compound, the “MIC PA” value in series [7] was above 64 µg/mL. In series [8], the “MIC SA” value came out at 32 µg/mL. The “MIC KP” value in series [5] was above 64 µg/mL. For the same compound, the “MIC FAE” value in series [9] is 32 µg/mL. Besides, the “MIC FAC” value in series [6] was found to be 8 µg/mL. In series [11], this compound showed an IC50 of 39 µg/mL.
In series [1], `NCC[C@H](O)C(=O)N[C@@H]1C[C@H](N)[C@@H](O[C@H]2O[C@H](CN)[C@@H](O)[C@H](O)[C@H]2O)[C@H](O)[C@H]1O[C@H]1O[C@H](CO)[C@@H](O)[C@H](N)[C@H]1O` [Amikacin, reference compound] displayed an MIC of 8 µg/mL (≈ 13.7 µM).
On to `C[N+](C)(C)CCCCOc1ccc(/C=C/c2ccc(OCCCC[N+](C)(C)C)cc2)cc1.[I-].[I-]` [Compound D4, reference compound], for which the “MIC MRSA” value in [2] was above 64 µg/mL. Further, the MIC in series [2] (towards MRSA, Table 3) was above 64 µg/mL. For the same compound, in series [3], the “MIC EC” value was > 64 µg/mL and 128 µg/mL. The “MIC AB” value in series [4] was above 64 µg/mL. Moreover, in series [7], the “MIC PA” value was above 64 µg/mL. In addition, the “MIC SA” value in series [8] is above 64 µg/mL. The “MIC KP” value in series [5] was above 64 µg/mL. In series [9], the “MIC FAE” value came out at 128 µg/mL. Besides, the “MIC FAC” value in [6] was 64 µg/mL. For the same compound, in series [11], the half-maximal inhibitory concentration (IC50) was 548 µg/mL.
